Laboratory results reported in US5827846A, “Carbazole derivatives as agents against multi-drug resistance” (Novartis Corp., priority 1994, dated 1998).

Legend:
[1] = tested on: human parental drug-sensitive KB-31 tumours; assay: In vivo antitumour activity against drug-sensitive KB-31 tumours in nude mice; parameters: species or system female Balb/c nude mice; conditions: KB-31 tumour
Method: (§1) The determination of the in vivo antitumour activity of test substance B (=N-benzoyl-6-benzyl-staurosporin) against the drug-sensitive parental KB-31 and a multidrug-resistant variant of the KB-31, i.e. the multidrug-resistant variant KB-8511, tumours is carried out in female Balb/c nude mice (Bomholdgaard, Copenhagen, Denmark) bearing serially passaged (minimum of three consecutive transplantations) either the human parental drug-sensitive KB-31 tumours or the human KB-8511 tumours. The KB-8511 tumours overexpress Pgb, the product of the mdr-1 gene (S. Akiyma et al., "Isolation and genetic characterization of human KB cell lines resistant to multiple drug", Somatic Cell and Mol. Gen. 11, 117-126 [1985]). Tumour fragments of approximately 25 mg are transplanted into the left flank of each animal (n=6 per group). […] Tumour growth is monitored twice weekly by measuring perpendicular diameters. Tumour volumes are determined as described by T. Meyer et al., Int. J. Cancer 43, 851-856 (1989), and expressed as relative tumour size (i.e. the increase in tumour volume compared with the tumour volume at the start of the treatment).

human KB-8511 tumours = assay: In vivo antitumour activity against multidrug-resistant KB-8511 tumours in nude mice; parameters: species or system female Balb/c nude mice; conditions: for T/C [%] (median tumour volumes treated versus control): KB-8511 tumour
Method: as §1

[2] = tested on: KB-8511 (drug-resistant, P-glycoprotein [Pgp] overexpressing) cells; assay: Inhibition of cell growth of drug-resistant KB-8511 cells (methylene blue staining, 4 days); type: cell-based, Human; conditions: 5760 min
Method: The KB-8511 cells are kept as stock in the presence of 10 ng/ml of the antineoplastically active substance Colcemid (demecolcine). […] The plates are then incubated under the conditions mentioned above for 4 days. […] After washing, the dye is eluted with 3% (w/v) aqueous hydrochloric acid. The optical density (OD) per well, which is directly proportional to the number of cells, is then measured with a photometer at 665 nm. The IC50 values are calculated by means of a computer system, using the formula

SMILES: COc1cccc2c1C(=O)c1c(O)c3c(c(O)c1C2=O)C[C@@](O)(C(=O)CO)C[C@@H]3O[C@H]1C[C@H](N)[C@H](O)[C@H](C)O1 [C, adriamycin]
- T/C [%] (median tumour volumes treated versus control) ([1]; 1 × 9 mg/kg i.v.): 13%
- Maximal tumour regression ([1]; adriamycin 1×9 mg/kg i.v. alone, on day 5): 24%
- T/C [%] (median tumour volumes treated versus control) (human KB-8511 tumours; 1 × 9 mg/kg i.v.): 89%

SMILES: CC[C@]1(O)C[C@@H]2CN(CCc3c([nH]c4ccccc34)[C@@](C(=O)OC)(c3cc4c(cc3OC)N(C)[C@H]3[C@@](O)(C(=O)OC)[C@H](OC(C)=O)[C@]5(CC)C=CCN6CC[C@]43[C@@H]65)C2)C1 [A, vinblastine]
- % growth of KB 8511 cells ([2]; A 2.34 ng/ml alone): 101%
- % growth of KB 8511 cells ([2]; A 4.69 ng/ml alone): 101%
- % growth of KB 8511 cells ([2]; A 9.38 ng/ml alone): 98%
- % growth of KB 8511 cells ([2]; A 18.8 ng/ml alone): 98%
- % growth of KB 8511 cells ([2]; A 37.5 ng/ml alone): 98%
- % growth of KB 8511 cells ([2]; A 75.0 ng/ml alone): 90%
- % growth of KB 8511 cells ([2]; A 150 ng/ml alone): 66%
- % growth of KB 8511 cells ([2]; A 300 ng/ml alone): 14%

SMILES: CO[C@@H]1[C@H](N(C)C(=O)c2ccccc2)C[C@H]2O[C@]1(C)n1c3ccccc3c3c4c(c5c6ccccc6n2c5c31)C(=O)N(Cc1ccccc1)C4 [B, N-benzoyl-6-benzyl-staurosporin]
- T/C [%] (median tumour volumes treated versus control) ([1]; 1 × 25 mg/kg p.o.): 91%
- Sensitisation of KB-8511 tumours to adriamycin (human KB-8511 tumours; 25 mg/kg p.o. 4 hours prior to adriamycin 9.0 mg/kg i.v.): sensitises the multi-drug resistant KB-8511 tumours to adriamycin
- T/C [%] (median tumour volumes treated versus control) (human KB-8511 tumours; 1 × 25 mg/kg p.o.): 93%
- % growth of KB 8511 cells ([2]; B 0.1 μmol alone): 92%
- % growth of KB 8511 cells ([2]; B 1 μmol alone (Example 10)): 95%
- % growth of KB 8511 cells ([2]; B 1 μmol alone (Example 11)): 82%
